# Laboratory results reported in US9051310B2, “Nicotinamide derivative or salt thereof” (FUJIFILM Corporation, priority 2011, dated 2015).
# Biological target: T1, glutathione S-transferase (GST)-linked full-length human Syk protein (Homo sapiens, UniProt P43405)
# T1 construct: glutathione S-transferase (GST)-linked full-length human Syk protein; purchased Carna Biosciences; host or cells: Baculovirus expression system
# Assay: Syk enzyme assay
# Format: biochemical
# Settings: 0.83 nM Syk, time-resolved fluorescence; read-out: IC50 of Syk-inhibitory activity
# Summary of the method: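 Phosphotyrosine on a biotin-peptide substrate (0.5 μM) was read by time-resolved fluorescence at 615 and 665 nm with Eu-anti-pTyr antibody and APC-streptavidin after 1 h EDTA stop.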
row,SMILES,IC50
1,"CC(C)[C@@H](Nc1nc(Nc2ccc3cnn(C)c3c2)c(C(N)=O)cc1F)[C@H](C)N [Example 2-102, 6-(((2S,3R)-2-amino-4-methylpentan-3-yl)amino)-5-fluoro-2-((1-methyl-1H-indazol-6-yl)amino)nicotinamide]",50 to 100 nM
2,"CC[C@H](N)[C@H](Nc1nc(Nc2ccc3c(c2)c(C)nn3C)c(C(N)=O)cc1F)C1CC1 [Example 2-545, 6-(((1R,2S)-2-amino-1-cyclopropylbutyl)amino)-2-((1,3-dimethyl-1H-indazol-5-yl)amino)-5-fluoronicotinamide]",< 10 nM
3,"Cc1ncc(Nc2nc(N[C@@H]3CC[C@@H](OCc4ccccc4)C[C@@H]3N)c(F)cc2C(N)=O)cc1-n1nccn1 (racemic) [Example 2-528, Mixture of 6-((2-amino-4-(benzyloxy)cyclohexyl)amino)-5-fluoro-2-((6-methyl-5-(2H-1,2,3-triazol-2-yl)pyridin-3-yl)amino)nicotinamide (1R,2S,4R), (1S,2R,4S)]",50 to 100 nM
4,"CC[C@@H](Nc1nc(Nc2cc(F)cc3c2cnn3CC)c(C(N)=O)cc1F)[C@H](C)N [Example 2-371, 6-(((2S,3R)-2-aminopentan-3-yl)amino)-2-((1-ethyl-6-fluoro-1H-indazol-4-yl)amino)-5-fluoronicotinamide]",< 10 nM
5,"Cc1ccc(Nc2nc(N[C@@H]3CCCC[C@@H]3N)c(F)cc2C(N)=O)cc1Cl [Example 2-445, 6-(((1R,2S)-2-aminocyclohexyl)amino)-2-((3-chloro-4-methylphenyl)amino)-5-fluoronicotinamide]",< 10 nM
6,"Cc1ncc(Nc2nc(N[C@@H](CN)Cn3cccn3)c(F)cc2C(N)=O)cc1F [Example 2-469, (S)-6-((1-amino-3-(1H-pyrazol-1-yl)propan-2-yl)amino)-5-fluoro-2-((5-fluoro-6-methylpyridin-3-yl)amino)nicotinamide]",10 to 50 nM
7,"C[C@H](N)[C@H](Nc1nc(Nc2ccc(F)c(F)c2)c(C(N)=O)cc1F)C1CCC1 [Example 2-61, 6-(((1R,2S)-2-amino-1-cyclobutylpropyl)amino)-2-((3,4-difluorophenyl)amino)-5-fluoronicotinamide]",10 to 50 nM
8,"CCn1ncc2cc(Nc3nc(N[C@H](c4ccc(OC)cc4)[C@H](C)N)c(F)cc3C(N)=O)ccc21 [Example 2-341, 6-(((1R,2S)-2-amino-1-(4-methoxyphenyl)propyl)amino)-2-((1-ethyl-1H-indazol-5-yl)amino)-5-fluoronicotinamide]",< 10 nM
9,"C[C@H](N)[C@H](Nc1nc(Nc2ccc3c(c2)c(OC(F)F)nn3C)c(C(N)=O)cc1F)C1CCC1 [Example 2-350, 6-(((1R,2S)-2-amino-1-cyclobutylpropyl)amino)-2-((3-(difluoromethoxy)-1-methyl-1H-indazol-5-yl)amino)-5-fluoronicotinamide]",< 10 nM
10,"NC(=O)c1cc(F)c(N[C@@H]2CCCC[C@@H]2N)nc1Nc1cccc(OC(F)(F)F)c1 [Example 2-444, 6-(((1R,2S)-2-aminocyclohexyl)amino)-5-fluoro-2-((3-(trifluoromethoxy)phenyl)amino)nicotinamide]",< 10 nM
11,"CC[C@H](N)[C@@H](C)Nc1nc(Nc2ccc3[nH]nc(N(C)C)c3c2)c(C(N)=O)cc1F [Example 2-495, 6-(((2R,3S)-3-aminopentan-2-yl)amino)-2-((3-(dimethylamino)-1H-indazol-5-yl)amino)-5-fluoronicotinamide]",< 10 nM
12,"CCC[C@@H](Nc1nc(Nc2cnc(OCCOC)c(-n3nccn3)c2)c(C(N)=O)cc1F)[C@H](C)N [Example 2-203, 6-(((2S,3R)-2-aminohexan-3-yl)amino)-5-fluoro-2-((6-(2-methoxyethoxy)-5-(2H-1,2,3-triazol-2-yl)pyridin-3-yl)amino)nicotinamide]",10 to 50 nM
13,"C[C@H](N)[C@H](Nc1nc(Nc2cncc3c2cnn3CC(F)F)c(C(N)=O)cc1F)C1CCC1 [Example 2-401, 6-(((1R,2S)-2-amino-1-cyclobutylpropyl)amino)-2-((1-(2,2-difluoroethyl)-1H-pyrazolo[3,4-c]pyridin-4-yl)amino)-5-fluoronicotinamide]",< 10 nM
14,"Cc1ncc(Nc2nc(N[C@H](c3ccccn3)[C@H](C)N)c(F)cc2C(N)=O)cc1-n1nccn1 [Example 2-403, 6-(((1S,2S)-2-amino-1-(pyridin-2-yl)propyl)amino)-5-fluoro-2-((6-methyl-5-(2H-1,2,3-triazol-2-yl)pyridin-3-yl)amino)nicotinamide]",10 to 50 nM

# Continued, values first:
row,IC50,SMILES
1,10 to 50 nM,"COc1ncc(Nc2nc(N[C@H](C3CC3)[C@H](C)N)c(F)cc2C(N)=O)cc1F [Example 2-62, 6-(((1R,2S)-2-amino-1-cyclopropylpropyl)amino)-5-fluoro-2-((5-fluoro-6-methoxypyridin-3-yl)amino)nicotinamide.]"
2,10 to 50 nM,"CC[C@H](N)[C@@H](C)Nc1nc(Nc2ccc3c(c2)c(N(C)CCOC)nn3C)c(C(N)=O)cc1F [Example 2-461, 6-(((2R,3S)-3-aminopentan-2-yl)amino)-5-fluoro-2-((3-((2-methoxyethyl)(methyl)amino)-1-methyl-1H-indazol-5-yl)amino)nicotinamide]"
3,50 to 100 nM,"COc1ccc([C@@H](Nc2nc(Nc3ccc4ncccc4c3)c(C(N)=O)cc2F)[C@H](C)N)cc1 [Example 2-337, 6-(((1R,2S)-2-amino-1-(4-methoxyphenyl)propyl)amino)-5-fluoro-2-(quinolin-6-ylamino)nicotinamide]"
4,< 10 nM,"C[C@H](N)[C@H](Nc1nc(Nc2cncc3c2cnn3CC(F)F)c(C(N)=O)cc1F)C1CC1 [Example 2-398, 6-(((1R,2S)-2-amino-1-cyclopropylpropyl)amino)-2-((1-(2,2-difluoroethyl)-1H-pyrazolo[3,4-c]pyridin-4-yl)amino)-5-fluoronicotinamide]"
5,< 10 nM,"C[C@H](N)[C@@H](Cc1ccccc1)Nc1nc(Nc2ccc3c(c2)c(N(C)C)nn3C)c(C(N)=O)cc1F [Example 2-424, 6-(((2R,3S)-3-amino-1-phenylbutan-2-yl)amino)-2-((3-(dimethylamino)-1-methyl-1H-indazol-5-yl)amino)-5-fluoronicotinamide]"
6,10 to 50 nM,"CCCC[C@@H](Nc1nc(Nc2cnc(N3CCOCC3)c(F)c2)c(C(N)=O)cc1F)[C@H](C)N [Example 2-262, 6-(((2S,3R)-2-aminoheptan-3-yl)amino)-5-fluoro-2-((5-fluoro-6-morpholinopyridin-3-yl)amino)nicotinamide]"
7,10 to 50 nM,"C[C@H](N)[C@H](Nc1nc(Nc2cnc(N3CCOCC3)c(F)c2)c(C(N)=O)cc1F)c1ccccc1F [Example 2-513, 6-(((1R,2S)-2-amino-1-(2-fluorophenyl)propyl)amino)-5-fluoro-2-((5-fluoro-6-morpholinopyridin-3-yl)amino)nicotinamide]"
8,10 to 50 nM,"Cc1ncc(Nc2nc(N[C@@H]3CC[C@@H](O)C[C@@H]3N)c(F)cc2C(N)=O)cc1-n1nccn1 (racemic) [Example 2-531, Mixture of 6-((2-amino-4-hydroxycyclohexyl)amino)-5-fluoro-2-((6-methyl-5-(2H-1,2,3-triazol-2-yl)pyridin-3-yl)amino)nicotinamide (1R,2S,4R), (1S,2R,4S)]"
9,50 to 100 nM,"CCC[C@@H](Nc1nc(Nc2cnc(OCCOC)c(F)c2)c(C(N)=O)cc1F)[C@H](C)N [Example 2-118, 6-(((2S,3R)-2-aminohexan-3-yl)amino)-5-fluoro-2-((5-fluoro-6-(2-methoxyethoxy)pyridin-3-yl)amino)nicotinamide]"
10,< 10 nM,"COCCn1nc(OC(F)F)c2cc(Nc3nc(N[C@@H](CN)CC(C)C)c(F)cc3C(N)=O)ccc21 [Example 2-542, (R)-6-((1-amino-4-methylpentan-2-yl)amino)-2-((3-(difluoromethoxy)-1-(2-methoxyethyl)-1H-indazol-5-yl)amino)-5-fluoronicotinamide]"
11,10 to 50 nM,"COCCOc1ncc(Nc2nc(N[C@H](CC(C)C)[C@H](C)N)c(F)cc2C(N)=O)cc1-n1nccn1 [Example 2-140, 6-(((2S,3R)-2-amino-5-methylhexan-3-yl)amino)-5-fluoro-2-((6-(2-methoxyethoxy)-5-(2H-1,2,3-triazol-2-yl)pyridin-3-yl)amino)nicotinamide]"
12,10 to 50 nM,"COCCOc1ncc(Nc2nc(N[C@H](C3CC3)[C@H](C)N)c(F)cc2C(N)=O)cc1F [Example 2-115, 6-(((1R,2S)-2-amino-1-cyclopropylpropyl)amino)-5-fluoro-2-((5-fluoro-6-(2-methoxyethoxy)pyridin-3-yl)amino)nicotinamide]"
13,10 to 50 nM,"C[C@H](N)[C@H](Nc1nc(Nc2ccc3c(c2)c(N(C)C)nn3C)c(C(N)=O)cc1F)c1cc(F)cc(F)c1 [Example 2-549, 6-(((1R,2S)-2-amino-1-(3,5-difluorophenyl)propyl)amino)-2-((3-(dimethylamino)-1-methyl-1H-indazol-5-yl)amino)-5-fluoronicotinamide]"
14,10 to 50 nM,"Cc1nn(C)c2ncc(Nc3nc(N[C@@H]4CCOC[C@@H]4N)c(F)cc3C(N)=O)cc12 [Example 2-333, 6-(((3R,4R)-3-aminotetrahydro-2H-pyran-4-yl)amino)-2-((1,3-dimethyl-1H-pyrazolo[3,4-b]pyridin-5-yl)amino)-5-fluoronicotinamide]"
15,10 to 50 nM,CCOc1ncc(Nc2nc(N[C@H](C3CC3)[C@H](C)N)c(F)cc2C(N)=O)cc1-n1cccn1 [Example 2-164]
16,10 to 50 nM,"CCCC[C@@H](Nc1nc(Nc2cncc3c2cnn3CCOC)c(C(N)=O)cc1F)[C@H](C)N [Example 2-389, 6-(((2S,3R)-2-aminoheptan-3-yl)amino)-5-fluoro-2-((1-(2-methoxyethyl)-1H-pyrazolo[3,4-c]pyridin-4-yl)amino)nicotinamide]"
17,10 to 50 nM,"CC[C@@H](Nc1nc(Nc2ccc3c(c2)c(NCCOC)nn3C)c(C(N)=O)cc1F)[C@H](C)N [Example 2-463, 6-(((2S,3R)-2-aminopentan-3-yl)amino)-5-fluoro-2-((3-((2-methoxyethyl)amino)-1-methyl-1H-indazol-5-yl)amino)nicotinamide]"
